According to PubChem BioAssay (NCI):
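How tested: cells in 96-well plates exposed to compound for 48 hours at five concentrations. GI50 is the concentration that inhibits growth by half. At the TGI there is no net growth.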

Assays:
Assay in all cases: NCI tumour cell line growth inhibition, 48 h
UACC-257 melanoma = test system: UACC-257 melanoma
SNB-75 CNS = test system: SNB-75 CNS
HCT-116 colon = test system: HCT-116 colon
SNB-19 CNS = test system: SNB-19 CNS
HS 578T breast = test system: HS 578T breast
MDA-MB-231 breast = test system: MDA-MB-231 breast
MCF7 breast = test system: MCF7 breast
TK-10 renal = test system: TK-10 renal
CAKI-1 renal = test system: CAKI-1 renal
SK-MEL-2 melanoma = test system: SK-MEL-2 melanoma
CCRF-CEM leukemia = test system: CCRF-CEM leukemia
SF-268 CNS = test system: SF-268 CNS
SK-MEL-5 melanoma = test system: SK-MEL-5 melanoma
NCI-H460 lung = test system: NCI-H460 lung
K-562 leukemia = test system: K-562 leukemia
786-0 renal = test system: 786-0 renal
SR leukemia = test system: SR leukemia
BT-549 breast = test system: BT-549 breast
HT29 colon = test system: HT29 colon
UO-31 renal = test system: UO-31 renal
HCC-2998 colon = test system: HCC-2998 colon
HOP-92 NSCLC = test system: HOP-92 NSCLC
NCI/ADR-RES ovarian = test system: NCI/ADR-RES ovarian
SK-MEL-28 melanoma = test system: SK-MEL-28 melanoma
U251 CNS = test system: U251 CNS
T-47D breast = test system: T-47D breast
RPMI-8226 leukemia = test system: RPMI-8226 leukemia
SW-620 colon = test system: SW-620 colon

Compound Cc1cc(C(O)CN(C)C)cc2c1ccc1cc(C(C)C)ccc12 (stereo not given) has a GI50 (UACC-257 melanoma) of 2110 nM, a TGI (UACC-257 melanoma) of 3.79 µM and a GI50 (SNB-75 CNS) of 1720 nM. It also gave a TGI (SNB-75 CNS) of 3.67 µM, a GI50 (HCT-116 colon) of 1800 nM and a TGI (HCT-116 colon) of 3.29 µM. For the same compound, the GI50 (SNB-19 CNS) was 2070 nM, the TGI (SNB-19 CNS) was 4.75 µM and the GI50 (HS 578T breast) was 2580 nM. It also gave a TGI (HS 578T breast) of 8.92 µM, a GI50 (MDA-MB-231 breast) of 1640 nM and a TGI (MDA-MB-231 breast) of 3.55 µM. The GI50 (MCF7 breast) was 1710 nM, the TGI (MCF7 breast) was 3.19 µM and the GI50 (TK-10 renal) was 1770 nM. For the same compound, the TGI (TK-10 renal) was 3.36 µM, the GI50 (CAKI-1 renal) was 1420 nM and the TGI (CAKI-1 renal) was 3.11 µM. It also gave a GI50 (SK-MEL-2 melanoma) of 2000 nM, a TGI (SK-MEL-2 melanoma) of 3.92 µM and a GI50 (CCRF-CEM leukemia) of 2480 nM. It also gave a TGI (CCRF-CEM leukemia) of 5.65 µM, a GI50 (SF-268 CNS) of 2800 nM and a TGI (SF-268 CNS) of 7.73 µM. It also gave a GI50 (SK-MEL-5 melanoma) of 1760 nM, a TGI (SK-MEL-5 melanoma) of 3.16 µM and a GI50 (NCI-H460 lung) of 1740 nM. For the same compound, the TGI (NCI-H460 lung) was 3.43 µM, the GI50 (K-562 leukemia) was 2150 nM and the TGI (K-562 leukemia) was 4.88 µM. For the same compound, the GI50 (786-0 renal) was 1840 nM, the TGI (786-0 renal) was 3.4 µM and the GI50 (SR leukemia) was 1960 nM. For the same compound, the TGI (SR leukemia) was 5.21 µM, the GI50 (BT-549 breast) was 5.67 µM and the TGI (BT-549 breast) was 19.5 µM. It also gave a GI50 (HT29 colon) of 1560 nM, a TGI (HT29 colon) of 3.62 µM and a GI50 (UO-31 renal) of 1580 nM. For the same compound, the TGI (UO-31 renal) was 3.72 µM, the GI50 (HCC-2998 colon) was 1570 nM and the TGI (HCC-2998 colon) was 3.16 µM. The GI50 (HOP-92 NSCLC) was 1830 nM, the TGI (HOP-92 NSCLC) was 6.45 µM and the GI50 (NCI/ADR-RES ovarian) was 2070 nM. The TGI (NCI/ADR-RES ovarian) was 5.47 µM, the GI50 (SK-MEL-28 melanoma) was 1880 nM and the TGI (SK-MEL-28 melanoma) was 3.36 µM. For the same compound, the GI50 (U251 CNS) was 1920 nM, the TGI (U251 CNS) was 3.53 µM and the GI50 (T-47D breast) was 2040 nM. For the same compound, the TGI (T-47D breast) was 4.48 µM, the GI50 (RPMI-8226 leukemia) was 2360 nM and the TGI (RPMI-8226 leukemia) was 5.12 µM. It also gave a GI50 (SW-620 colon) of 1790 nM.
